Patent publication US20240299353A1, “COMPOSITIONS AND METHODS FOR TREATING […] 5-MEO-DMT” (Alvarius Pharmaceuticals Ltd., priority 2021, published 2024)

Assays:
[1] = system: primary hippocampal neurons; experiment: Antagonist pre-treatment studies of neuronal structural change, Sholl analysis; type: cell-based, rat; settings: for AUC of the Sholl plot / normalised AUC of the Sholl plot: vehicle pre-treated; for neuronal structural complexity (normalised AUC): meta-analysis, combined vehicle pre-treated groups
Procedure: Primary hippocampal cultures were grown on 18 mm glass coverslips at a density of 1×10^6 cells as described. On 3 DIV all cells underwent a full medium change. […] On 4 DIV, all cells underwent a second full medium change. Cells in the combination group were treated with 2 μM 5-MeO-DMT for a further 24 hours with all other groups beginning a 24-hour treatment. After treatment was completed the cells were fixed and processed as described below.
Based on the findings with other psychedelic drugs that share structural and behavioral similarities to 5-MeO-DMT we selected ANA-12 (Sigma), an antagonist of TrkB, the BDNF receptor, and rapamycin (ThermoFischer) an antagonist of the mammalian target of rapamycin (mTOR). Due to the affinity and known behavioral change induced by 5-MeO-DMT at the 5-HT1AR and 5-HT2AR we assessed their contribution to structural changes mediated by 5-MeO-DMT. The receptors were antagonized with WAY-100635 maleate (Tocris) or Ketanserin (Axxora), respectively. For all antagonist studies the antagonist under investigation was added 15 mins prior to drug treatment. […] ANA-12, Ketanserin and rapamycin were dissolved in dimethyl sulfoxide (DMSO) with a final concentration of 0.01-0.04% for treatment. WAY100635 was dissolved in sterile dH2O.
After termination of drug treatment coverslips were processed and imaged as outlined for immunocytochemistry. In all instances NeuN antibody staining was used to visualize projections from the cell body. Images were analyzed using the Simple Neurite Tracer and Sholl analysis plug-ins for ImageJ Fiji. For the Sholl analysis circle radii of 2 μm increments were used. All images were taken and analyzed by an experimenter blinded to treatment conditions.
Statistical Analysis—Data are represented as mean±SEM. Statistical analyses were performed using GraphPad Prism (version 5). For analyses involving comparison of three or more groups, a one-way ANOVA with Bonferroni's post-hoc test was utilized where appropriate. No statistics were calculated for the individual points of the Sholl plots, instead, statistical analyses were performed on the aggregate data, the area under the curve (AUC) of the Sholl plot. Secondary measurements were the Nmax, the maximum number of intersections measured by the Sholl analysis, which indicated the number of projections emanating from a neuron and the average length of primary neurites originating from the cell soma.

5-HT1AR = experiment: Western blot of 5-HT1AR in brain regions, chronic cocaine ± 5-MeO-DMT; type: in vivo, Male Wistar rats
Excerpt: Male Wistar rats aged 7 weeks were acclimatized to the facility for 1 week prior to the beginning of the study. […] Animals were euthanized 23- or 119-hours following vehicle or 5-MeO-DMT administration.
Following euthanasia brain regions of interest were isolated. Briefly, the olfactory bulbs were removed before the brain was placed in a rat brain matrix (FIG. 2A). Sterile blades were inserted at positions 2 and 3 (FIG. 2B) to extract a coronal slice containing the Bregma+˜0.2-+˜2.2 coordinates (FIG. 2C). From this tissue slice a blunted 12 G needle was used to punch dissect the NAc and dorsal striatum (DS) (FIG. 2D-2E) identified using the rat brain atlas (Panxinos and Watson 2nd edition). The PFC, hippocampus (Hip) and amygdala (Amyg) were then blunt dissected (FIG. 3A-3D). All regions were frozen in liquid nitrogen and stored at −80° C. until processed.
These treatment groups were used for the molecular assessment of addiction-linked markers.
Determination of protein concentration—a bicinchoninic acid assay (BCA, ThermoFisher) was conducted to determine the total protein concentration in tissue lysates following manufacturer's instructions. Briefly, bovine serum albumin (BSA) standards were prepared in a serial dilution (0-2.0 mg protein/ml) and 200 μl working reagent (50:1, reagent A: reagent B) was added to each of the standards and samples in a 96 well plate (Greiner). For tissue lysates a 1:10 dilution was performed with cell lysis buffer to ensure absorbance values lay within the working range established by the standards. All samples and standards were added in duplicate. The plate was covered and incubated for 30 mins at 37° C. before absorbance was read at 562 nm on a plate reader (SpectraMax M3). The absorbance values were used to form a standard curve of known protein concentrations and protein concentration of samples were derived using the equation of the line. All samples were standardized to the lowest protein concentration using distilled H20 (dH2O).
SDS-PAGE and Western Blotting—Following equalisation of protein concentrations, 6× sample loading buffer (15% SDS, 15% […], 50% glycerol, 0.01% bromophenol blue, […]) was added to each sample using a dilution factor of 1:5 of the total volumes before boiling at 100° C. for 5 mins. Samples were stored at −20° C. until use. One dimensional sodium-dodecyl-sulphate polyacrylamide gel electrophoresis (SDS-PAGE) was used for protein separation based on molecular weight. The percentage of acrylamide in the resolving or stacking gel was determined by the molecular weight of the protein of interest. In this instance all gels consisted of a 5% stacking gel and a 10% resolving gel with the exception of mGluR5, G9a (8%) and H3K9Me2 (12%). 20 μg of protein was loaded and resolved using SDS-PAGE. Gel electrophoresis was conducted at 80V while the protein was in the stacking gel, once it migrated to the resolving gel the voltage was increased to 120V and ran for 90 mins. Samples were transferred to a 0.45 μm polyvinylidene difluoride (PVDF) membrane (Analab) for 1 hour at 100V and blocked in 5% milk blocking solution made in tris-buffered saline containing tween®-20 (TBS-T, Sigma) for 90 mins. Primary antibodies (FIG. 5) were diluted in 5% BSA in TBS-T and incubated with membranes overnight at 4° C. or for 2 hours at room temperature. After incubation with primary antibodies the membranes were washed in TBS-T for 4×10 minutes before incubation with 1:2000 anti-rabbit and 1:2000 anti-mouse Alexa Fluro® conjugated secondary antibodies (Invitrogen) in 2% milk for 1 hour at room temperature. Membranes were washed in TBS-T for 4×10 minutes and in TBS for 1×10-minute wash. Proteins were visualized using Odyssey® infrared imaging system. Protein expression was quantified using Image Studio Lite (Version 5.2) and expression intensities were normalized to a house keeping protein, α-Tubulin or β-actin.

[2] = ANA-12 study, 5-MeO-DMT or cocaine alone
[3] = WAY100635 study, 5-MeO-DMT (20 μM) or cocaine (25 μM) alone
[4] = rapamycin study, 5-MeO-DMT or cocaine alone
[5] = hippocampus, 120 h, all treatment groups

| SMILES | AUC of the Sholl plot [1, 2] | AUC of the Sholl plot ([1]; ANA-12 study, cocaine and 5-MeO-DMT combined) | average neurite length ([1]; ANA-12 study, 5-MeO-DMT alone) | average neurite length ([1]; ANA-12 study, 5-MeO-DMT in combination with cocaine) | normalised AUC of the Sholl plot [1, 3] | normalised AUC of the Sholl plot ([1]; WAY100635 study, cocaine followed by 5-MeO-DMT) | average neurite length ([1]; WAY100635 study, 5-Meo+vehicle) | normalised AUC of the Sholl plot ([1]; ketanserin study, cocaine followed by 5-MeO-DMT) | neuronal structural complexity (normalised AUC) ([1]; agent alone) | neuronal structural complexity (normalised AUC) ([1]; cocaine+5-MeO-DMT combination) | normalised AUC of the Sholl plot [1, 4] | normalised AUC of the Sholl plot ([1]; rapamycin study, cocaine followed by 5-MeO-DMT) | 5-HT1AR expression (5-HT1AR; hippocampus, 24 h, 10 mg/kg 5-MeO-DMT alone (decrease)) | 5-HT1AR expression (5-HT1AR; hippocampus, 24 h, 20 mg/kg 5-MeO-DMT alone) | 5-HT1AR expression (5-HT1AR; hippocampus, 24 h, cocaine + either 5-MeO-DMT concentration (10 or 20 mg/kg)) | 5-HT1AR expression (5-HT1AR; [5]) | 5-HT1AR expression (5-HT1AR; amygdala, 24 h, cocaine, p=0.0172, no post hoc differences) | 5-HT1AR expression (5-HT1AR; amygdala, 120 h, cocaine) | 5-HT1AR expression (5-HT1AR; hippocampus, 24 h, repeated cocaine) |
| --- | --- | --- | --- | --- | --- | --- | --- | --- | --- | --- | --- | --- | --- | --- | --- | --- | --- | --- | --- |
| COc1ccc2[nH]cc(CCN(C)C)c2c1 [5-MeO-DMT, 5-methoxy-N,N-dimethyltryptamine] | increased the AUC relative to control | increased the AUC relative to control | significantly increased | significantly increased | increased the normalised AUC | no change between the combination group and control | significantly increased | reduced AUC relative to control | significantly increased neuronal structural complexity | significantly increased neuronal structural complexity | increased the normalised AUC | no change between the combination group and control | only the 10 mg/kg concentration achieves significance | trend towards decreasing expression levels | restoring receptor expression to levels comparable to control | equal across treatment groups |  |  |  |
| COC(=O)[C@H]1[C@@H](OC(=O)c2ccccc2)C[C@@H]2CC[C@H]1N2C.Cl [cocaine, cocaine hydrochloride, reference compound] | increased the AUC relative to control |  |  |  | increased the normalised AUC |  |  |  | significantly increased neuronal structural complexity |  | increased the normalised AUC |  |  |  |  | equal across treatment groups | significant cocaine effect | does not persist to 120 hours | decreased 5-HT1AR expression |
